The text below walks through data of patent US7825253B2, “2-aminoquinoline derivatives” (Hoffmann-La Roche Inc., priority 2006, dated 2010).

The assay deals with T1, recombinant human 5-HT5A receptor (Homo sapiens, UniProt P47898).
T1 construct: expressed in transfected cells; host or cells: Human Embryonic Kidney-EBNA (HEK-EBNA) cells, transient cDNA expression; membranes
The experiment in a line: [3H]LSD radioligand binding assay. The note with it: [3H]LSD approx. 1 nM; membranes from HEK-EBNA cells transiently expressing 5-HT5A; Ki from IC50 by Cheng-Prussoff. The protocol:
A [^3H]LSD radioligand binding assay was used to determine the affinity of the compounds for the recombinant human 5-HT5A receptor, in membranes from transiently (cDNA) expressed 5-HT5A receptors in Human Embryonic Kidney-EBNA (HEK-EBNA) cells. Assay buffer consisted of Tris (50 mM) buffer containing 1 mM EGTA, 10 mM MgCl2 (pH 7.4) and 10 μM pargyline. The binding assay was carried out in 96-well-plates in the presence of [^3H]LSD (approximately 1 nM), approximately 2 μg/well of membrane protein, and 0.5 mg of Ysi-poly-l-lysine SPA beads in a final volume of 200 μl of buffer. Non-specific binding was defined using methiothepin 2 μM. Compounds were tested at 10 concentrations. All assays were conducted in duplicate and repeated at least two times. Assay plates were incubated for 120 min at room temperature before centrifugation. Bound ligand was determined using a Packard Topcount scintillation counter. IC50 values were calculated using a non-linear curve fitting program and Ki values calculated using the Cheng-Prussoff equation.

Broadly, the Ki is the dissociation constant of the complex between target and ligand, obtained from inhibition or displacement.

T1 sequence (P47898 whole entry): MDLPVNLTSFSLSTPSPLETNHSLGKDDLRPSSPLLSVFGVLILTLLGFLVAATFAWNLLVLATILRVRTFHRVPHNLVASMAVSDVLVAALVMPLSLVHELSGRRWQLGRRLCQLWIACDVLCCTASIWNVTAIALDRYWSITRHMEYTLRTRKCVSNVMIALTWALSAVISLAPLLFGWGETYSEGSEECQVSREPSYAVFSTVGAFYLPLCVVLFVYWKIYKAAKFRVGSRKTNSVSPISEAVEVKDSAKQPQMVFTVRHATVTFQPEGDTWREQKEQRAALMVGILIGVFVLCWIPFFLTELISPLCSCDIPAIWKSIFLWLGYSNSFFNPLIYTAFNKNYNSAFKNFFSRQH

Take `Cc1ccc(CNc2ccc3c(CCc4cccc(S(N)(=O)=O)c4)cccc3n2)o1` [Example 34, 3-(2-{2-[(5-Methyl-furan-2-ylmethyl)-amino]-quinolin-5-yl}-ethyl)-benzenesulfonamide]: the Ki was 0.0124 µM.
In the case of `FC(F)(F)Oc1ccccc1CNc1ccc2c(NCc3cccc4[nH]ccc34)cccc2n1` [Example 116, N5-(1H-Indol-4-ylmethyl)-N2-(2-trifluoromethoxy-benzyl)-quinoline-2,5-diamine], the inhibitory constant (Ki) is 0.0329 µM.
As for `CC(Nc1cccc2nc(Nc3cccc4c3OC(C)(C)C4)ccc12)c1cccnc1` (racemic) [Example 162, rac-N2-(2,2-Dimethyl-2,3-dihydro-benzofuran-7-yl)-N5-(1-pyridin-3-yl-ethyl)-quinoline-2,5-diamine], the figure is 0.00715 µM; as for `Cc1ccc(CNc2ccc3c(NC4CCS(=O)(=O)c5ccccc54)cccc3n2)o1` (racemic) [Example 143, rac-5-(1,1-Dioxo-1l6-thiochroman-4-yl)-N2-(5-methyl-furan-2-ylmethyl)-quinoline-2,5-diamine], 0.0182 µM.
Consider `Cc1ccc(CNc2ccc3c(CCc4ccccc4)cccc3n2)o1` [Example 17, (5-Methyl-furan-2-ylmethyl)-(5-phenethyl-quinolin-2-yl)-amine], for which the Ki was 0.0213 µM.
In the case of `CC1(C)Cc2cccc(Nc3ccc4c(NS(=O)(=O)c5cc(F)cc(F)c5)cccc4n3)c2O1` [Example 141, N-[2-(2,2-Dimethyl-2,3-dihydro-benzofuran-7-ylamino)-quinolin-5-yl]-3,5-difluoro-benzenesulfonamide], the inhibition constant (Ki) came out at 0.022 µM.
Take `COc1ccccc1CNc1cccc2nc(NCc3ccc(C)o3)ccc12` [Example 13, N5-(2-Methoxy-benzyl)-N2-(5-methyl-furan-2-ylmethyl)-quinoline-2,5-diamine]: the Ki is 0.0153 µM.
With `CC1(C)Cc2cccc(Nc3ccc4c(NCc5cccnc5)cccc4n3)c2O1` [Example 163, N2-(2,2-Dimethyl-2,3-dihydro-benzofuran-7-yl)-N5-pyridin-3-ylmethyl-quinoline-2,5-diamine] the figure was 0.00992 µM; with `CC1(C)Cc2cccc(Nc3ccc4c(NCc5ccc6[nH]cnc6c5)cccc4n3)c2O1` [Example 148, N5-(1H-Benzoimidazol-5-ylmethyl)-N2-(2,2-dimethyl-2,3-dihydro-benzofuran-7-yl)-quinoline-2,5-diamine], 0.00308 µM.
For the molecule `Cc1cccc(CNc2cccc3nc(NCc4ccc(C)o4)ccc23)n1` [Example 29, N2-(5-Methyl-furan-2-ylmethyl)-N5-(6-methyl-pyridin-2-ylmethyl)-quinoline-2,5-diamine], the Ki worked out at 0.0175 µM.
For the molecule `COc1ncccc1CNc1cccc2nc(NCc3ccc(C)o3)ccc12` [Example 27, N5-(2-Methoxy-pyridin-3-ylmethyl)-N2-(5-methyl-furan-2-ylmethyl)-quinoline-2,5-diamine], the Ki amounted to 0.043 µM.
With `COc1ccccc1CNc1ccc2c(NCc3cnc[nH]3)cccc2n1` [Example 101, N5-(3H-Imidazol-4-ylmethyl)-N2-(2-methoxy-benzyl)-quinoline-2,5-diamine] the figure was 0.0145 µM; with `Cc1ccc(CNc2ccc3c(NCc4cc[nH]n4)cccc3n2)o1` [Example 88, N2-(5-Methyl-furan-2-ylmethyl)-N5-(1H-pyrazol-3-ylmethyl)-quinoline-2,5-diamine], 0.0329 µM; with `Cc1ccc(CNc2ccc3c(Nc4cccc5[nH]ccc45)cccc3n2)o1` [Example 94, N5-(1H-Indol-4-yl)-N2-(5-methyl-furan-2-ylmethyl)-quinoline-2,5-diamine], 0.0107 µM.
As for `Cc1ccc(CNc2ccc3c(N[C@H]4CCS(=O)(=O)c5ccccc54)cccc3n2)o1` [Example 152, (R)— and (S)—N5-((S)-1,1-Dioxo-1l6-thiochroman-4-yl)-N2-(5-methyl-furan-2-ylmethyl)-quinoline-2,5-diamine], the inhibitory constant (Ki) was found to be 0.0147 µM.
With `COc1ccccc1CNc1ccc2c(NCc3cnc(C)[nH]3)cccc2n1` [Example 97, N2-(2-Methoxy-benzyl)-N5-(2-methyl-3H-imidazol-4-ylmethyl)-quinoline-2,5-diamine] the figure was 0.031 µM; with `O=S(=O)(Nc1cccc2nc(Nc3cccc(C4CC4)c3)ccc12)c1cc(F)cc(F)c1` [Example 159, N-[2-(3-Cyclopropyl-phenylamino)-quinolin-5-yl]-3,5-difluoro-benzenesulfonamide], 0.0283 µM.
`Cc1ccc(CNc2ccc3c(SCc4ccccc4)cccc3n2)o1` [Example 46, (5-Benzylsulfanyl-quinolin-2-yl)-(5-methyl-furan-2-ylmethyl)-amine]: the Ki stood at 0.0341 µM.
With `Cc1ccc(CNc2ccc3c(NCc4nccs4)cccc3n2)o1` [Example 100, N2-(5-Methyl-furan-2-ylmethyl)-N5-thiazol-2-ylmethyl-quinoline-2,5-diamine], the Ki was 0.0227 µM.
With `Cc1ccc(CNc2ccc3c(NS(=O)(=O)c4ccccc4)cccc3n2)o1` [Example 39, N-{2-[(5-Methyl-furan-2-ylmethyl)-amino]-quinolin-5-yl}-benzenesulfonamide] the figure was 0.0287 µM; with `COc1ccccc1CNc1ccc2c(NCc3cccc4[nH]ccc34)cccc2n1` [Example 102, N5-(1H-Indol-4-ylmethyl)-N2-(2-methoxy-benzyl)-quinoline-2,5-diamine], 0.00641 µM; with `O=S(=O)(Nc1cccc2nc(NCc3ccccc3OC(F)(F)F)ccc12)c1ccc(F)cc1` [Example 108, 4-Fluoro-N-[2-(2-trifluoromethoxy-benzylamino)-quinolin-5-yl]-benzenesulfonamide], 0.0496 µM.
With `Cc1ccc(CNc2ccc3c(Nc4ccc(Cl)cc4)cccc3n2)o1` [Example 51, N5-(4-Chloro-phenyl)-N2-(5-methyl-furan-2-ylmethyl)-quinoline-2,5-diamine] the figure was 0.00909 µM.
As for `Cc1ccc(CNc2ccc3c(NCc4cccnc4)cccc3n2)o1` [Example 15, N2-(5-Methyl-furan-2-ylmethyl)-N5-pyridin-3-ylmethyl-quinoline-2,5-diamine], the figure is 0.0111 µM.
On to `CC1(C)Cc2cccc(Nc3ccc4c(NS(=O)(=O)Nc5ccc(F)cc5)cccc4n3)c2O1` [Example 156, N-{2-[(2,2-dimethyl-2,3-dihydro-1-benzofuran-7-yl)amino]quinolin-5-yl}-N′-(4-fluorophenyl)sulfamide], for which the Ki amounted to 0.0451 µM.
With `Cc1ccc(CNc2ccc3c(NCc4nc[nH]c4C)cccc3n2)o1` [Example 92, N2-(5-Methyl-furan-2-ylmethyl)-N5-(5-methyl-1H-imidazol-4-ylmethyl)-quinoline-2,5-diamine] the figure was 0.0144 µM; with `Cc1ccc(CNc2ccc3c(NCc4ccccn4)cccc3n2)o1` [Example 26, N2-(5-Methyl-furan-2-ylmethyl)-N5-pyridin-2-ylmethyl-quinoline-2,5-diamine], 0.021 µM.
As for `FC(F)(F)Oc1ccccc1CNc1ccc2c(NCc3ccc4[nH]cnc4c3)cccc2n1` [Example 117, N5-(1H-Benzoimidazol-5-ylmethyl)-N2-(2-trifluoromethoxy-benzyl)-quinoline-2,5-diamine], the inhibition constant (Ki) stood at 0.0324 µM.
Regarding `Cc1ccc(CNc2ccc3c(NCc4ccc(F)cc4)cccc3n2)o1` [Example 20, N5-(4-Fluoro-benzyl)-N2-(5-methyl-furan-2-ylmethyl)-quinoline-2,5-diamine], the Ki was found to be 0.0254 µM.
Turning to `Cc1cc2cccc(Nc3ccc4c(NCc5cccnc5)cccc4n3)c2o1` [Example 129, N2-(2-Methyl-benzofuran-7-yl)-N5-pyridin-3-ylmethyl-quinoline-2,5-diamine], the Ki was 0.016 µM.
As for `COc1ccccc1CNc1ccc2c(NCc3ccncc3)cccc2n1` [Example 9, N2-(2-Methoxy-benzyl)-N5-pyridin-4-ylmethyl-quinoline-2,5-diamine], the figure is 0.0345 µM; as for `Cc1ccc(CNc2ccc3c(NS(=O)(=O)c4cc(F)cc(F)c4)cccc3n2)o1` [Example 60, 3,5-Difluoro-N-{2-[(5-methyl-furan-2-ylmethyl)-amino]-quinolin-5-yl}-benzenesulfonamide], 0.0217 µM.
As for `Cc1cc2cccc(Nc3ccc4c(NCc5cccc6[nH]ccc56)cccc4n3)c2o1` [Example 111, N5-(1H-Indol-4-ylmethyl)-N2-(2-methyl-benzofuran-7-yl)-quinoline-2,5-diamine], the figure is 0.0101 µM.
On to `Cc1ccc(CNc2ccc3c(Nc4ccc(F)cc4)cccc3n2)o1` [Example 45, N5-(4-Fluoro-phenyl)-N2-(5-methyl-furan-2-ylmethyl)-quinoline-2,5-diamine], for which the inhibitory constant (Ki) turned out to be 0.0132 µM.
As for `Cc1cc2cccc(Nc3ccc4c(NS(=O)(=O)c5cc(F)cc(F)c5)cccc4n3)c2o1` [Example 89, 3,5-Difluoro-N-[2-(2-methyl-benzofuran-7-ylamino)-quinolin-5-yl]-benzenesulfonamide], the figure is 0.0506 µM; as for `CSc1ccccc1CNc1ccc2c(NS(=O)(=O)c3ccc(F)cc3)cccc2n1` [Example 82, 4-Fluoro-N-[2-(2-methylsulfanyl-benzylamino)-quinolin-5-yl]-benzenesulfonamide], 0.0339 µM.
In the case of `Cc1cc2cccc(Nc3ccc4c(NS(=O)(=O)c5ccc(F)cc5)cccc4n3)c2o1` [Example 128, 4-Fluoro-N-[2-(2-methyl-benzofuran-7-ylamino)-quinolin-5-yl]-benzenesulfonamide], the Ki was 0.0797 µM.
